Laboratory results: US6699877B2 (Gruenenthal GmbH, priority 2000, dated 2004)

biological target: T1, glycine binding site of the NMDA receptor channel (Rattus norvegicus, UniProt P35439); experiment: Receptor binding, displacement of (3H)-MDL 105.519 on rat cerebral membrane homogenates; settings: 10 μmol/l test substance; 1 nmol/l (3H)-MDL 105.519; read-out: Displacement (%, 10 μmol/l) of radioactive ligand from specific binding
T1 construct: from tissue; host or cells: rat brain cortex and hippocampus membrane homogenate
Description: Receptor Binding (Glycine Binding Site of the NMDA Receptor Channel)
Experiments to determine the affinity of the compounds according to the invention of Formula I to the glycine binding site of the NMDA receptor channel were carried out on cerebral membrane homogenates (homogenate of Cortex- and Hippocampus-Areal from the brain of male rats, Wistar strain) (B. M. Baron, B. W. Siegel, B. L. Harrison, R. S. Gross, C. and P. Towers, Journal of Pharmacology and Experimental Therapeutics, Vol. 279, p. 62, 1996).
For this purpose, Cortex and Hippocampus from freshly removed rats' brains were dissected, homogenized in 5 mmol/l TRIS-acetate buffer, 0.32 mol/l sacharose pH 7.4 (10 ml/g fresh weight) with a Potter homogenizer (made by Braun/Melsungen, 10 piston strokes at 500 rpm) while cooling with ice and subsequently centrifuged for 10 minutes at 1,000 g and 4° C. The first supernatant material was collected and the sediment homogenized again with […] TRIS-acetate buffer, 0.32 mol/l safcharose pH 7.4 (5 ml/g original fresh weight) using the Potter homogenizer (10 piston strokes at 500 rpm) while cooling with ice and centrifuged for 10 minutes at 1,000 g and 4° C. The resultant supernatant material was combined with the supernatant material from the first centrifugation and centrifuged at 17,000 g for 20 minutes at 4° C. The supernatant material after this centrifugation was discarded, the membrane sediment taken up with 5 mmol/l TRIS-acetate buffer pH 8.0 (20 ml/g original fresh weight) and homogenized with 10 piston strokes at 500 rpm.
The membrane homogenate was then incubated for 1 hour at 4° C. and centrifuged for 30 minutes at 50,000 g and 4° C. The supernatant material was discarded and the centrifuge tube with the membrane sediment sealed with parafilm and frozen for 24 hours at −20° C. The membrane sediment was thawed on the following day, taken up with ice-cold 5 mmol/l TRIS-acetate buffer, 0.1% saponin (w/v) pH 7.0 (10 ml/g original fresh weight), homogenized with 10 piston strokes at 500 rpm and subsequently centrifuged for 20 minutes at 50,00 g and 4° C. The resultant supernatant material was discarded, the sediment taken up in a small volume with 5 mmol/l TRIS-acetate buffer pH 7.0 (about 2 ml/g original fresh weight) and homogenized again with 10 piston strokes at 500 rpm. After determining the protein content, the membrane homogenate was adjusted to a protein concentration of 10 mg protein/ml using 5 mmol/l TRIS-acetate buffer pH 7.0 and frozen in aliquots for testing.
For the receptor binding test, aliquots were thawed, diluted 1:10 with 5 mmol/l TRIS-acetate buffer pH 7.0, homogenized with 10 piston strokes at 500 rpm using the potter homogenizer (10 piston strokes at 500 rpm) while cooling with ice and centrifuged for 60 minutes at 55,000 g at 4° C. The supernatant material was decanted, the membrane sediment adjusted to a protein concentration of 1 mg/ml with ice-cold 50 mmol/l TRIS-acetate buffer pH 7.0, homogenized again with 10 piston strokes at 500 rpm and kept in suspension in the ice bath while stirring on a magnetic stirrer. 100 μl of this membrane homogenate per 1 ml of feedstock was used in each case in the receptor binding test (0.1 mg protein/ml in the final batch).
In the binding test, 50 mmol/l TRIS-acetate buffer pH 7.0 was used as buffer and 1 nmol/l (^3H)-MDL 105.519 (B. M. Baron et al 1996) was used as radioactive ligand. The proportion of unspecific binding was determined in the presence of 1 mmol/l glycine.
In further batches, the compounds according to the invention were added in concentration series and the displacement of the radioactive ligand from its specific binding to the glycine binding site of the NMDA receptor channel determined. The respective triple batches were incubated for 120 minutes at 4° C. and then harvested to determine the radioactive ligands bound to the membrane homogenate by filtration through glass fiber filter mats (GF/B). […]

**Q.** Which inhibition at 10 µM does the source give for `CCOC(=O)C1CC(c2ccc(Cl)cc2)c2c(Cl)cc(Cl)cc2N1` (centres unmarked) [Example 35, 5,7-dichloro-4-(4-chlorophenyl)-1,2,3,4-tetrahydroquinoline-2-carboxylic Acid Ethyl Ester] here?
**A.** Its inhibition at 10 µM is 32%.

**Q.** Which inhibition at 10 µM does the source give for `CCOC(=O)C1CC(c2ccccc2Cl)c2c(Cl)cc(Cl)cc2N1` (centres unmarked) [Example 33, 5,7-dichloro-4-(2-chlorophenyl)-1,2,3,4-tetrahydroquinoline-2-carboxylic Acid Ethyl Ester] here?
**A.** Its inhibition at 10 µM is 40%.

**Q.** With `CCOC(=O)C1CC(c2ccccc2F)c2c(Cl)cc(Cl)cc2N1` (centres unmarked) [Example 26, 5,7-dichloro-4-(2-fluorophenyl)-1,2,3,4-tetrahydroquinoline-2-carboxylic Acid Ethyl Ester] as the compound, how does the inhibition at 10 µM read?
**A.** Its inhibition at 10 µM is 43%.

**Q.** For `CCOC(=O)C1CC(c2cccc(Cl)c2)c2c(Cl)cc(Cl)cc2N1` (centres unmarked) [Example 34, 5,7-dichloro-4-(3-chlorophenyl)-1,2,3,4-tetrahydroquinoline-2-carboxylic Acid Ethyl Ester], which inhibition at 10 µM is on record?
**A.** Its inhibition at 10 µM is 32%.

**Q.** How did the inhibition at 10 µM turn out when `CCOC(=O)C1Nc2cc(Cl)cc(Cl)c2C2C3CCC(C3)C12` (centres unmarked) [Example 60, 1,3-dichloro-7,10-methano-5,6,6a,7,8,9,10,10a-octahydrophenanthridine-6-carboxylic Acid Ethyl Ester] was run?
**A.** The inhibition at 10 µM was 23%.

**Q.** With `O=C(O)C1CC(c2ccc3ccccc3c2)c2cc(F)cc(Cl)c2N1` (centres unmarked) [Example 81, 8-chloro-6-fluoro-4-naphthalene-2-yl-1,2,3,4-tetrahydroquinoline-2-carboxylic acid] as the compound, how does the inhibition at 10 µM read?
**A.** The inhibition at 10 µM was 66%.

**Q.** For `CCOC(=O)C1CC(c2ccc(F)cc2)c2cc(Cl)ccc2N1` (centres unmarked) [Example 51, 6-chloro-4-(4-fluorophenyl)-1,2,3,4-tetrahydroquinoline-2-carboxylic Acid Ethyl Ester], which inhibition at 10 µM is on record?
**A.** The inhibition at 10 µM was 21%.

**Q.** How did the inhibition at 10 µM turn out when `Cc1ccc(C2CC(C(=O)O)Nc3cc(Cl)cc(Cl)c32)c(C)c1` (centres unmarked) [Example 22, 5,7-dichloro-4-(2,4-dimethylphenyl)-1,2,3,4-tetrahydroquinoline-2-carboxylic Acid] was run?
**A.** The inhibition at 10 µM was 68%.

**Q.** For `CCOC(=O)C1CC(c2ccccc2C)c2c(Cl)cc(Cl)cc2N1` (centres unmarked) [Example 16, 5,7-dichloro-4-o-tolyl-1,2,3,4-tetrahydroquinoline-2-carboxylic Acid Ethyl Ester], which inhibition at 10 µM is on record?
**A.** The inhibition at 10 µM was 35%.

**Q.** For `CCOC(=O)C1CC(c2ccccc2Br)c2cc(Cl)ccc2N1` (centres unmarked) [Example 54, 6-chloro-4-(2-bromophenyl)-1,2,3,4-tetrahydroquinoline-2-carboxylic Acid Ethyl Ester], which inhibition at 10 µM is on record?
**A.** Its inhibition at 10 µM is 22%.

**Q.** Which inhibition at 10 µM does the source give for `Cc1cccc(C2CC(C(=O)O)Nc3cc(Cl)cc(Cl)c32)c1` (centres unmarked) [Example 18, 5,7-dichloro-4-m-tolyl-1,2,3,4-tetrahydroquinoline-2-carboxylic Acid] here?
**A.** The inhibition at 10 µM was 51%.

**Q.** How did the inhibition at 10 µM turn out when `COc1cc(C2c3cc(SC)ccc3NC(C(=O)O)C2C)ccc1O` (centres unmarked) [Example 93, 4-(4-hydroxy-3-methoxyphenyl)-3-methyl-6-methylsulphanyl-1,2,3,4-tetrahydroquinoline-2-carboxylic acid] was run?
**A.** The inhibition at 10 µM was 44%.

**Q.** `CCOC(=O)C1CC(c2cccc(C(F)(F)F)c2)c2c(Cl)cc(Cl)cc2N1` (centres unmarked) [Example 41, 5,7-dichloro-4-(3-trifluoromethylphenyl)-1,2,3,4-tetrahydroquinoline-2-carboxylic Acid Ethyl Ester] was tested. Which inhibition at 10 µM did it give?
**A.** The inhibition at 10 µM was 38%.

**Q.** For `CCOC(=O)C1CC(c2ccc(OCc3ccccc3)c(OC)c2)c2cc(C(C)(C)C)ccc2N1` (centres unmarked) [Example 96, 4-(4-benzyloxy-3-methoxyphenyl)-6-tert-butyl-1,2,3,4-tetrahydroquinoline-2-carboxylic acid ethyl ester], which inhibition at 10 µM is on record?
**A.** The inhibition at 10 µM was 29%.

**Q.** How did the inhibition at 10 µM turn out when `N#Cc1ccc2c(c1)C(c1ccccc1Cl)CC(C(=O)O)N2` (centres unmarked) [Example 89, 4-(2-chlorophenyl)-6-cyano-1,2,3,4-tetrahydroquinoline-2-carboxylic acid] was run?
**A.** Its inhibition at 10 µM is 30%.

**Q.** With `CCOC(=O)C1Nc2cc(Cl)cc(Cl)c2C2CCCC12` (centres unmarked) [Example 59, 7,9-dichloro-2,3,3a,4,5,9b-hexahydro-1H-cyclopenta[c]quinoline-4-carboxylic Acid Ethyl Ester] as the compound, how does the inhibition at 10 µM read?
**A.** The inhibition at 10 µM was 14%.

**Q.** `O=C(O)C1CC(c2ccccc2Cl)c2c(Cl)cc(Cl)cc2N1` (centres unmarked) [Example 32, 5,7-dichloro-4-(2-chlorophenyl)-1,2,3,4-tetrahydroquinoline-2-carboxylic Acid] was tested. Which inhibition at 10 µM did it give?
**A.** Its inhibition at 10 µM is 92%.

**Q.** How did the inhibition at 10 µM turn out when `O=C(O)C1Nc2cc(Cl)cc(Cl)c2C2c3ccccc3CCC12` (centres unmarked) [Example 100, 1,3-dichloro-5,6,6a,7,8,12b-hexahydrobenzo[k]phenanthridine-6-carboxylic acid] was run?
**A.** The inhibition at 10 µM was 80%.

**Q.** `O=C(O)C1CC(c2ccccc2Br)c2cc(Br)cc(Cl)c2N1` (centres unmarked) [Example 92, 6-bromo-4-(2-bromophenyl)-8-chloro-1,2,3,4-tetrahydroquinoline-2-carboxylic acid] was tested. Which inhibition at 10 µM did it give?
**A.** The inhibition at 10 µM was 62%.

**Q.** Which inhibition at 10 µM does the source give for `CCOC(=O)C1CC(c2ccccc2Cl)c2cc(Cl)ccc2N1` (centres unmarked) [Example 52, 6-chloro-4-(2-chlorophenyl)-1,2,3,4-tetrahydroquinoline-2-carboxylic Acid Ethyl Ester] here?
**A.** The inhibition at 10 µM was 22%.

system: formalin-induced nociception; experiment: Formalin test, rat (second/late phase); type: in vivo; settings: i.p., 21.5 mg/kg, late phase
Description: Experiments to determine the antinociceptive activity of the compounds according to the invention of Formula I were carried out in the formalin test on male rats (Sprague-Dawley, 150-170 g).
In the formalin test, the first (early) phase (0-15 min after formalin injection) was distinguished from the second (late) phase (15-60 min after formalin injection) (D. Dubuisson, S. G. Dennis, Pain 4, 161-174 (1977)). The early phase, as a direct reaction to the formalin injection, represents a model for acute pain while the late phase is considered as a model for persistent (chronic) pain (T. J. Coderre, J. Katz, A. L. Vaccarino, R. Melzack, Pain, Vol. 52, p. 259,1993).
The compounds according to the invention were investigated in the second phase of the formalin test to obtain information about the effects of substances in chronic/inflammatory pain.
A nociceptive reaction was induced in freely moving experimental animals by a single subcutaneous formalin injection (50 μl, 5%) into the dorsal side of the back right paw, the nociceptive reaction being portrayed by the following behavioral parameters: lifting and holding the respective paw (Score 1), shaking and twitching (Score 2), licking and biting (Score 3). The different behavioral patterns triggered by the formalin injection were recorded continuously by observing the animals in the late phase of the formalin test and were weighted differently in an evaluation. Normal behavior in which the animal loads all four paws uniformly was recorded as score 0. The moment of administration prior to the formalin injection was selected according to the method of administration of the compounds according to the invention (intraperitoneal: 15 min, intravenous: 5 min). The described behavioral patterns (Score 1 to 3) in the animals are reduced and possibly even eliminated after injection of substances which have an antinociceptive effect in the formalin test. A comparisom was made with control animals which had received vehicles (solvents) prior to formalin administration. The nociceptive behavior was calculated as a so-called pain rate (PR). The various behavioral parameters received a different weighting (Factor 0, 1, 2, 3). Calculation took place at partial intervals of 3 min according to the following formula:
Substance and vehicle groups include n=10 animals in each case. The effect of the substance was determined as a percentage change versus control on the basis of the PR calculations. The ED50 calculations were made by regression analysis.

**Q.** Which “% inhibition of formalin-induced nociception” value (shortened to “% inhibition”) does the source give for `CCOC(=O)C1CC(c2ccc(Cl)cc2)c2c(Cl)cc(Cl)cc2N1` (centres unmarked) [Example 35, 5,7-dichloro-4-(4-chlorophenyl)-1,2,3,4-tetrahydroquinoline-2-carboxylic Acid Ethyl Ester] here?
**A.** Its value is 21.9%.

**Q.** Which “% inhibition” value does the source give for `CCOC(=O)C1CC(c2ccccc2Cl)c2c(Cl)cc(Cl)cc2N1` (centres unmarked) [Example 33, 5,7-dichloro-4-(2-chlorophenyl)-1,2,3,4-tetrahydroquinoline-2-carboxylic Acid Ethyl Ester] here?
**A.** Its value is 69.0%.

**Q.** `CCOC(=O)C1CC(c2ccccc2F)c2c(Cl)cc(Cl)cc2N1` (centres unmarked) [Example 26, 5,7-dichloro-4-(2-fluorophenyl)-1,2,3,4-tetrahydroquinoline-2-carboxylic Acid Ethyl Ester] was tested. Which “% inhibition” value did it give?
**A.** The value was 82.6%.

**Q.** `CCOC(=O)C1CC(c2cccc(Cl)c2)c2c(Cl)cc(Cl)cc2N1` (centres unmarked) [Example 34, 5,7-dichloro-4-(3-chlorophenyl)-1,2,3,4-tetrahydroquinoline-2-carboxylic Acid Ethyl Ester] was tested. Which “% inhibition” value did it give?
**A.** Its value is 53.1%.

**Q.** With `CCOC(=O)C1Nc2cc(Cl)cc(Cl)c2C2C=CCC12` (centres unmarked) [Example 1, 7,9-dichloro-3a,4,5,9b-tetrahydro-3H-cyclopenta[c]quinoline-4-carboxylic Acid Ethyl Ester] as the compound, how does the “% inhibition” value read?
**A.** The value was 88.3%.

same assay, conditions: i.v., 21.5 mg/kg, late phase

**Q.** For `O=C(O)C1Nc2ccc(Cl)cc2C2C=CCC12` (centres unmarked) [Example 4, 8-chloro-3a-4,5,9b-tetrahydro-3H-cyclo-penta[c]quinoline-4-carboxylic Acid], which “% inhibition” value is on record?
**A.** The value was 67.1%.
